Results: the NIST ThermoML archive (doi:10.1016/j.jct.2017.10.017)
± gives the expanded uncertainty stated by the source.

Conditions: for Normal melting temperature: Crystal, DTA; for Glass transition temperature: DSC

| Compound | Normal melting temperature | Glass transition temperature |
| --- | --- | --- |
| CCCCCCCC[N+](C)(CCO)CCO.[Br-] [N,N-bis(2-hydroxyethyl)-N-methyloctan-1-aminium bromide] | 27 ± 6 °C |  |
| CCCCCCCCCC[N+](C)(CCO)CCO.[Br-] [N,N-bis(2-hydroxyethyl)-N-methyldecan-1-aminium bromide] | 47 ± 6 °C |  |
| CCCC[N+](C)(CCO)CCO.[Br-] [N,N-bis(2-hydroxyethyl)-N-methylbutan-1-aminium bromide] |  | -49 ± 6 °C |
| CCCCCC[N+](C)(CCO)CCO.[Br-] [N,N-bis(2-hydroxyethyl)-N-methylhexan-1-aminium bromide] |  | -47 ± 6 °C |
| CCCC[N+](CCO)(CCO)CCCC.[Br-] [N-butyl-N,N-bis(2-hydroxyethyl)butan-1-aminium bromide] |  | -50 ± 6 °C |
